“Also recorded” adds a separate entry of the source.
Experiments:
[1] = tested on: mice pancreatic islets; test: Glucose stimulated insulin secretion in isolated mice islets (ELISA); type: cell-based, BALB/c mice; settings: 16.7 mM glucose; for Effect on glucose stimulated insulin secretion: compound 200 µM, 1 h, 37°C
Method: Six to eight week old BALB/c mice, weighing 30–40 g, were used in the study. These mice were obtained from the animal house of COMSATS University Islamabad, Abbottabad Campus and placed under standard temperature (25 ± 2°C) and humidity (50–55%) conditions with an alternate 12-h light/dark cycle. All the experimental animals were provided with a continuous supply of food and water. The animals were handled according to internationally accepted guidelines of animal care and use. Moreover, this study was reviewed and approved by Research Ethics Committee, Department of Pharmacy, COMSATS University Islamabad, Abbottabad Campus. (Protocol number: PHM.Eth./CS-M01-020-1609)
The islets were isolated from mice pancreas as previously described, by a process involving collagenase digestion ([Hameed et al., 2018]). Briefly, mice were anesthetized with sodium thiopental (30 mg kg) and sacrificed by cervical dislocation to block the flow of blood. Immediately, mice were transferred to biological hood and their abdominal cavity was opened completely by making an incision on abdomen. In order to stop the bile flow toward duodenum, ampulla was located and clamped under dissection microscope. Then, distention of pancreas was carried out by injecting 3 ml of collagenase solution (1 mg/ml) through common bile duct. The distended pancreas was removed as a whole, transferred to a 50 ml tube and digested in collagenase solution at 37°C. After 15 min, digestion was stopped by placing the tube on ice and 20 ml of Hank’s Balanced Salt Solution (HBSS) was added to it. Thus the digested islets were washed with HBSS (two to three times) by centrifugation (1,000 rpm) for 1 min at 4°C. Finally, islets were purified by passing through a cell strainer (70 µm) and isolated manually (by hand picking) under stereomicroscope (Euromex, Arnhem, Netherlands). All the purification and isolation procedures were carried out in HBSS, containing no magnesium, calcium and phenol red.
Krebs-Ringer bicarbonate buffer (KRBB) was used as an incubation medium for islets and was composed of NaCl (118 mM), KCl (4.7 mM), CaCl2 (1.9 mM), MgSO4 (1.2 mM), NaHCO3 (25 mM), 4-(2-hydroxyethyl)-1-piperazineethanesulfonic acid (HEPES, 10 mM) and bovine serum albumin (0.1%). The pH of KRBB was maintained at 7.4. The isolated islets were size-matched and pre-incubated (3 islets/tube) for 45 min at 37°C in KRBB, supplemented with 3 mM glucose. Thereafter, incubation medium was replaced with fresh KRBB (containing 16.7 mM glucose) and islets were incubated for 60 min at 37°C with or without test substance(s). After incubation, supernatant was collected and stored at −40°C until further use. Finally, collected samples were properly diluted and insulin secretion was estimated with ultra-sensitive mouse insulin ELISA kit (Crystal Chem Inc., Downers Grove, United States) according to the manufacturer’s instructions. The absorbance was measured at 450 nm and insulin secretion was normalized for number of islets used. ([Hameed et al., 2018]).

[2] = biological target: T1, h-NTPDase8 (Homo sapiens, UniProt Q5MY95); test: h-NTPDase8 inhibition, malachite green assay; type: biochemical; settings: Lineweaver-Burk plot
T1 construct: made in house; host or cells: COS-7 cells, transient transfection; crude protein extract after sonication
T1 sequence (Q5MY95 1-495): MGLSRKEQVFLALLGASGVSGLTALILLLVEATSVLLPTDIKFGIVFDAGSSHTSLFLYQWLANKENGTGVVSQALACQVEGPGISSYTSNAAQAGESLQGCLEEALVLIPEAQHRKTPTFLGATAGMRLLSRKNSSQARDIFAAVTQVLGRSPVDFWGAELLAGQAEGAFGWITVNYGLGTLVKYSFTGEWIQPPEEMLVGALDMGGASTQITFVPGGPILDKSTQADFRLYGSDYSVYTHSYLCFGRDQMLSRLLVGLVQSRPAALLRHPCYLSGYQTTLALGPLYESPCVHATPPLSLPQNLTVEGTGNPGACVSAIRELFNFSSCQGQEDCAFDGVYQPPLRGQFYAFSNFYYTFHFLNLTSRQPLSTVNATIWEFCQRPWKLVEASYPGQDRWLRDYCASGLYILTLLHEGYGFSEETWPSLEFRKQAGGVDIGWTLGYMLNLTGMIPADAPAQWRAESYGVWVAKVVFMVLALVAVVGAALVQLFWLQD

[3] = tested on: ectonucleotidase activity in islets homogenate; test: Ectonucleotidase activity of islet homogenate (malachite green, Pi release); type: biochemical, mice; settings: for Effect on ectonucleotidase activity in islets homogenate: compound 100 µM, 100 µM ATP as substrate, versus control
Method: Islets were isolated and homogenized, according to the previously reported method ([Hedeskov and Capito, 1974]). After isolation, islets were washed thrice with HBSS and suspended in an ice-cold buffer containing sucrose (0.25 M), ethylenediaminetetraacetic acid (EDTA,1 mM) and tris-HCl (5 mM), maintained at pH 7.0. The resulting suspension was diluted with assay buffer, composed of tris-HCl (50 mM) and CaCl2 (5 mM). Afterward, these islets were sonicated for 30 s leading to disruption of islets and formation of a homogenate. Cellular debris was removed by centrifugation at 15,000 rpm for 10 min (4°C). The supernatant was collected and stored on ice. Protein concentration was estimated by Bradford method, using bovine serum albumin as reference standard ([Bradford, 1976]).
In order to determine the effect of compounds on ectonucleotidase activity in mice islets, standard curve based procedure was used where KH2PO4 was used as a standard. A stock solution of KH2PO4 (1 mM) was prepared in assay buffer that was used to prepare the working solutions of lower concentrations (0–100 µm). A standard curve was generated by incubating increasing concentration of KH2PO4 with buffer and malachite green reagent.
The assay was carried out in tris-buffer (pH 7.4) containing tris-HCl (50 mM) and CaCl2 (5 mM), as previously described ([Lavoie et al., 2010]). Compounds were dissolved in DMSO (10%) and tested at a concentration of 100 µM. The assay was started by adding 10 µl of test compound solution to 56 µl of assay buffer, followed by the addition of 6 µl of homogenate (i.e., 3 µg of protein). The mixture was incubated at 37°C for 10 min and then 10 µl of ATP (100 µM) was added to start the reaction. Reaction mixture was again placed in incubator at 37°C for 15 min and then reaction was stopped by adding 100 µl of trichloroacetic acid (10%). […] Finally, samples were mixed with malachite green reagent in an appropriate proportion and released Pi was determined by using standard curve. […] All the experiments were carried out in triplicate and enzyme activity was expressed as […] of Pi/min/mg of protein.

[4] = tested on: mice pancreatic islets; test: Glucose stimulated insulin secretion in isolated mice islets (ELISA); type: cell-based, BALB/c mice; settings: basal glucose 3 mM

Row | Mode of inhibition of h-NTPDase8 [2] | SMILES | Effect on glucose stimulated insulin secretion [1] | Effect on ectonucleotidase activity in islets homogenate [3] | Dose-dependent effect on insulin secretion ([1]; 10–200 µM) | Effect on insulin secretion at basal glucose level [4] | Dose response of ectonucleotidase activity in islet homogenate ([3]; different concentrations, 100 µM ATP, Pi release)
1 | competitive | O=C1Nc2ccccc2/C1=N/NC(=S)Nc1ccc(Cl)cc1 [8c, (Z)-N-(4-chlorophenyl)-2-(2-oxoindolin-3-ylidene)hydrazine-1-carbothioamide] | no significant effect on insulin secretion; also recorded: did not show any significant effect on insulin secretion |  |  |  | 
2 |  | Cc1ccc(C(=O)Nc2ccc(S(=O)(=O)O)c3cc(S(=O)(=O)O)cc(S(=O)(=O)O)c23)cc1NC(=O)c1cccc(NC(=O)Nc2cccc(C(=O)Nc3cc(C(=O)Nc4ccc(S(=O)(=O)O)c5cc(S(=O)(=O)O)cc(S(=O)(=O)O)c45)ccc3C)c2)c1 [Suramin, reference compound] | Neither suramin nor isatin had any significant effect | significantly reduced the enzyme activity |  |  | 
3 |  | CCNC(=S)N/N=C1\C(=O)Nc2ccccc21 [8m, (Z)-N-ethyl-2-(2-oxoindolin-3-ylidene)hydrazine-1-carbothioamide] | potently stimulated insulin secretion; also recorded: significant increase in glucose stimulated insulin secretion | significantly decreased the ectonucleotidase activity; also recorded: significantly reduced the enzyme activity; also recorded: significant reduction in ectonucleotidase activity; also recorded: significantly reduced ectonucleotidase activity | dose dependent increase in insulin release; also recorded: dose dependent increase in insulin secretion | no effect on insulin secretion; also recorded: did not produce any significant effect | dose dependent decrease in enzyme activity

— paper PMC7734281, “Functionalized Oxoindolin Hydrazine Carbothioamide Derivatives as Highly Potent Inhibitors of Nucleoside Triphosphate Diphosphohydrolases” (Frontiers in Pharmacology, 2020)
